In patent publication US20260001928A1 (CORTERIA PHARMACEUTICALS, priority 2022, published 2026):
*1 amine or outer side, *2 acyl side, *3 side chain or, on linkers, in order; H or OH if unused. Where a SMILES comes first, the peptide text is derived from it. Side-chain parts run from the residue outwards. [ ]: non-standard residue; d: D form. The star is where a group is joined. C18 diacid = O=C(O)CCCCCCCCCCCCCCCCC(=O)*; C16 diacid = O=C(O)CCCCCCCCCCCCCCC(=O)*; γGlu = O=C(O)[C@H](CCC(=O)[*:2])N[*:1]; Pentanoyl = CCCCC(=O)*; AEEA = NCCOCCOCC(=O)O; Aib = CC(C)(N)C(=O)O; Propionyl = CCC(=O)*; Butyryl = CCCC(=O)*

Tests used:
[1] = biological target: T1, human CRF2a receptor (Homo sapiens, UniProt Q13324); assay: Activity at human CRF2a receptor, cAMP functional assay in TeloHEAC cells; assay type: cell-based; details: TeloHEAC cells stably expressing human CRF2a receptor, relative to urocortin 2 (100 nM = 100%)
T1 construct: expressed in transfected cells; host or cells: TeloHEAC cells
T1 sequence (Q13324 1-411): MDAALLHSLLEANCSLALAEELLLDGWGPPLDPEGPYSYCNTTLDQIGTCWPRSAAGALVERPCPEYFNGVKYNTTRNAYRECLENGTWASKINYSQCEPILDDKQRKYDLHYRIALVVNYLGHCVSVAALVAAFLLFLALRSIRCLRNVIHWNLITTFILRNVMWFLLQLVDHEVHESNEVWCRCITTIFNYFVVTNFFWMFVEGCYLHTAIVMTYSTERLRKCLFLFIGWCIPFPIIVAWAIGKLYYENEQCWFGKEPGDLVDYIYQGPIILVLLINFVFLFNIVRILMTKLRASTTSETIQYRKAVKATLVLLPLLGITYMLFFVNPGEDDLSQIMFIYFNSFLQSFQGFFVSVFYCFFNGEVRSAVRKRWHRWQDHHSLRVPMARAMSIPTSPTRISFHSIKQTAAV
Summary of the method: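 cAMP accumulation was measured by HTRF 665/620 nm ratio after 30 min at 37° C compound exposure (16 twofold dilutions) of CRF2a-expressing TeloHEAC cells, 10000/well, in HEPES-buffered HBSS plus IBMX. Activity was normalised to urocortin 2 at 100 nM (100%), and EC50 was the concentration giving half-maximal activation.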

[2] = biological target: T2, CFR1R receptor (Homo sapiens, UniProt P34998); assay: Activity at anti-target CFR1R receptor, cAMP assay in CRF1R-overexpression CHO-K1 cells; assay type: cell-based; details: 100% = Sauvagine at 100 nM; for EC50: cAMP
T2 construct: host or cells: CHO-K1 (clone 2)
T2 sequence (P34998 24-415): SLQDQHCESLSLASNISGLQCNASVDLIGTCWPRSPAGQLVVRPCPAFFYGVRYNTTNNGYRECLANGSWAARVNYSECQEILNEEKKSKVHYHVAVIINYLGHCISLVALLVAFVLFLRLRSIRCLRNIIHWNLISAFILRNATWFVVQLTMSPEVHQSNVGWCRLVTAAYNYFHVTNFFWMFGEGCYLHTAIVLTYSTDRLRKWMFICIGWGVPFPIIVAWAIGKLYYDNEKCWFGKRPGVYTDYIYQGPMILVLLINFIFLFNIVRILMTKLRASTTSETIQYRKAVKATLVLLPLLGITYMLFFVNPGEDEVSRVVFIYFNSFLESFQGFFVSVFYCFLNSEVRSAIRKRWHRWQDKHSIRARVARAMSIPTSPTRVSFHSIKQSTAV
Summary of the method: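 Clone 2; cryopreserved stocks (10% DMSO); 4000 cells/well final; 100% activation = Sauvagine 100 nM; otherwise as TeloHAEC protocol.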

Row | SMILES | EC50 [1] [nM] | Emax (% I) [2] [% I] | EC50 [2] [nM]
1 | CCCCC(=O)N[C@H](C(=O)N[C@@H](CC(C)C)C(=O)N[C@@H](CO)C(=O)N[C@@H](CC(C)C)C(=O)N[C@@H](CC(=O)O)C(=O)N[C@@H](C(=O)N1CCC[C@H]1C(=O)N[C@H](C(=O)N[C@@H](CCCCN)C(=O)N[C@@H](CC(C)C)C(=O)N[C@@H](CCCCNC(=O)CC[C@H](NC(=O)CCCCCCCCCCCCCCC(=O)O)C(=O)O)C(=O)N[C@@H](CCCCN)C(=O)N[C@H](C(=O)N[C@@H](CC(C)C)C(=O)N[C@@H](CC(C)C)C(=O)N[C@@H](CCC(=O)O)C(=O)N[C@@H](CCC(N)=O)C(=O)N[C@@H](CCC(=O)O)C(=O)N[C@@H](CCCCN)C(=O)N[C@@H](CCC(N)=O)C(=O)N[C@@H](CCCCN)C(=O)N[C@@H](CCCCN)C(=O)N[C@@H](CCC(N)=O)C(=O)N[C@@H](CCCNC(=N)N)C(=O)N[C@@H](CCC(=O)O)C(=O)N[C@@H](CCC(N)=O)C(=O)N[C@@H](C)C(=O)N[C@@H](CCC(=O)O)C(=O)N[C@H](C(=O)N[C@@H](CC(N)=O)C(=O)N[C@H](C(=O)N[C@@H](CCC(N)=O)C(=O)N[C@H](C(=O)N[C@@H](CC(C)C)C(=O)N[C@@H](C)C(=O)N[C@@H](CCC(N)=O)C(=O)N[C@H](C(N)=O)C(C)C)[C@@H](C)CC)C(C)C)[C@@H](C)O)[C@@H](C)CC)[C@@H](C)CC)C(C)C)C(C)C [compound 81] (Pentanoyl-VLSLD[dV]PIKLK([γGlu-C16 diacid])KILLEQEKQKKQREQAETNVQILAQV-NH2) | 0.8 | 6 | > 250
2 | CCC(=O)N[C@H](C(=O)N[C@@H](CC(C)C)C(=O)N[C@@H](CO)C(=O)N[C@@H](CC(C)C)C(=O)N[C@@H](CC(=O)O)C(=O)N[C@H](C(=O)N1CCC[C@H]1C(=O)N[C@H](C(=O)N[C@@H](CCCCN)C(=O)N[C@@H](CC(C)C)C(=O)N[C@@H](CCCCNC(=O)COCCOCCNC(=O)COCCOCCNC(=O)CC[C@H](NC(=O)CCCCCCCCCCCCCCCCC(=O)O)C(=O)O)C(=O)N[C@@H](CCCCN)C(=O)N[C@H](C(=O)N[C@@H](CC(C)C)C(=O)N[C@@H](CC(C)C)C(=O)N[C@@H](CCC(=O)O)C(=O)N[C@@H](CCC(N)=O)C(=O)N[C@@H](CCC(=O)O)C(=O)N[C@@H](CCCCN)C(=O)N[C@@H](CCC(N)=O)C(=O)N[C@@H](CCCCN)C(=O)N[C@@H](CCCCN)C(=O)N[C@@H](CCC(N)=O)C(=O)N[C@@H](CCCNC(=N)N)C(=O)N[C@@H](CCC(=O)O)C(=O)N[C@@H](CCC(N)=O)C(=O)N[C@@H](C)C(=O)N[C@@H](CCC(=O)O)C(=O)N[C@H](C(=O)N[C@@H](CC(N)=O)C(=O)N[C@@H](CCCCN)C(=O)N[C@@H](CCC(N)=O)C(=O)N[C@H](C(=O)N[C@@H](CC(C)C)C(=O)N[C@@H](C)C(=O)N[C@@H](CCC(N)=O)C(=O)N[C@H](C(N)=O)C(C)C)[C@@H](C)CC)[C@@H](C)O)[C@@H](C)CC)[C@@H](C)CC)C(C)C)C(C)C [compound 94] (Propionyl-VLSLDVPIKLK([AEEA-AEEA-γGlu-C18 diacid])KILLEQEKQKKQREQAETNKQILAQV-NH2) | 1.48 | 0 | > 250
3 | CCCC(=O)N[C@H](C(=O)N[C@@H](CC(C)C)C(=O)N[C@@H](CO)C(=O)N[C@@H](CC(C)C)C(=O)N[C@@H](CC(=O)O)C(=O)N[C@H](C(=O)N1CCC[C@H]1C(=O)N[C@H](C(=O)N[C@@H](CCCCN)C(=O)N[C@@H](CC(C)C)C(=O)N[C@@H](CCCCNC(=O)COCCOCCNC(=O)COCCOCCNC(=O)CC[C@H](NC(=O)CCCCCCCCCCCCCCCCC(=O)O)C(=O)O)C(=O)N[C@@H](CCCCN)C(=O)N[C@H](C(=O)N[C@@H](CC(C)C)C(=O)N[C@@H](CC(C)C)C(=O)N[C@@H](CCC(=O)O)C(=O)N[C@@H](CCC(N)=O)C(=O)N[C@@H](CCC(=O)O)C(=O)N[C@@H](CCCCN)C(=O)N[C@@H](CCC(N)=O)C(=O)N[C@@H](CCCCN)C(=O)N[C@@H](CCCCN)C(=O)N[C@@H](CCC(N)=O)C(=O)N[C@@H](CCCNC(=N)N)C(=O)N[C@@H](CCC(=O)O)C(=O)N[C@@H](CCC(N)=O)C(=O)N[C@@H](C)C(=O)N[C@@H](CCC(=O)O)C(=O)N[C@H](C(=O)N[C@@H](CC(N)=O)C(=O)N[C@@H](CCCCN)C(=O)N[C@@H](CCC(N)=O)C(=O)N[C@H](C(=O)N[C@@H](CC(C)C)C(=O)N[C@@H](C)C(=O)N[C@@H](CCC(N)=O)C(=O)N[C@H](C(N)=O)C(C)C)[C@@H](C)CC)[C@@H](C)O)[C@@H](C)CC)[C@@H](C)CC)C(C)C)C(C)C [compound 95] (Butyryl-VLSLDVPIKLK([AEEA-AEEA-γGlu-C18 diacid])KILLEQEKQKKQREQAETNKQILAQV-NH2) | 0.76 | 5 | > 250

Molecules with a lower EC50 [1], results first:

Row | EC50 [1] [nM] | Emax (% I) [2] [% I] | EC50 [2] [nM] | SMILES
4 | 0.73 | 7 | > 250 | CCC(=O)N[C@H](C(=O)N[C@@H](CC(C)C)C(=O)N[C@@H](CO)C(=O)N[C@@H](CC(C)C)C(=O)N[C@@H](CC(=O)O)C(=O)N[C@@H](C(=O)N1CCC[C@H]1C(=O)N[C@H](C(=O)N[C@@H](CCCCN)C(=O)N[C@@H](CC(C)C)C(=O)N[C@@H](CCCCNC(=O)CC[C@H](NC(=O)CCCCCCCCCCCCCCC(=O)O)C(=O)O)C(=O)N[C@@H](CCCCN)C(=O)N[C@H](C(=O)N[C@@H](CC(C)C)C(=O)N[C@@H](CC(C)C)C(=O)N[C@@H](CCC(=O)O)C(=O)N[C@@H](CCC(N)=O)C(=O)N[C@@H](CCC(=O)O)C(=O)N[C@@H](CCCCN)C(=O)N[C@@H](CCC(N)=O)C(=O)N[C@@H](CCCCN)C(=O)N[C@@H](CCCCN)C(=O)N[C@@H](CCC(N)=O)C(=O)N[C@@H](CCCNC(=N)N)C(=O)N[C@@H](CCC(=O)O)C(=O)N[C@@H](CCC(N)=O)C(=O)N[C@@H](C)C(=O)N[C@@H](CCC(=O)O)C(=O)N[C@H](C(=O)N[C@@H](CC(N)=O)C(=O)NC(C)(C)C(=O)N[C@@H](CCC(N)=O)C(=O)N[C@H](C(=O)N[C@@H](CC(C)C)C(=O)N[C@@H](C)C(=O)N[C@@H](CCC(N)=O)C(=O)N[C@H](C(N)=O)C(C)C)[C@@H](C)CC)[C@@H](C)O)[C@@H](C)CC)[C@@H](C)CC)C(C)C)C(C)C [compound 78] (Propionyl-VLSLD[dV]PIKLK([γGlu-C16 diacid])KILLEQEKQKKQREQAETN[Aib]QILAQV-NH2)
5 | 0.38 | 10 | > 250 | CCCC(=O)N[C@H](C(=O)N[C@@H](CC(C)C)C(=O)N[C@@H](CO)C(=O)N[C@@H](CC(C)C)C(=O)N[C@@H](CC(=O)O)C(=O)N[C@@H](C(=O)N1CCC[C@H]1C(=O)N[C@H](C(=O)N[C@@H](CCCCN)C(=O)N[C@@H](CC(C)C)C(=O)N[C@@H](CCCCNC(=O)CC[C@H](NC(=O)CCCCCCCCCCCCCCC(=O)O)C(=O)O)C(=O)N[C@@H](CCCCN)C(=O)N[C@H](C(=O)N[C@@H](CC(C)C)C(=O)N[C@@H](CC(C)C)C(=O)N[C@@H](CCC(=O)O)C(=O)N[C@@H](CCC(N)=O)C(=O)N[C@@H](CCC(=O)O)C(=O)N[C@@H](CCCCN)C(=O)N[C@@H](CCC(N)=O)C(=O)N[C@@H](CCCCN)C(=O)N[C@@H](CCCCN)C(=O)N[C@@H](CCC(N)=O)C(=O)N[C@@H](CCCNC(=N)N)C(=O)N[C@@H](CCC(=O)O)C(=O)N[C@@H](CCC(N)=O)C(=O)N[C@@H](C)C(=O)N[C@@H](CCC(=O)O)C(=O)N[C@H](C(=O)N[C@@H](CC(N)=O)C(=O)NC(C)(C)C(=O)N[C@@H](CCC(N)=O)C(=O)N[C@H](C(=O)N[C@@H](CC(C)C)C(=O)N[C@@H](C)C(=O)N[C@@H](CCC(N)=O)C(=O)N[C@H](C(N)=O)C(C)C)[C@@H](C)CC)[C@@H](C)O)[C@@H](C)CC)[C@@H](C)CC)C(C)C)C(C)C [compound 79] (Butyryl-VLSLD[dV]PIKLK([γGlu-C16 diacid])KILLEQEKQKKQREQAETN[Aib]QILAQV-NH2)
